In patent publication US12692262B2, “Substituted ureas as orexin receptor agonists” (Merck Sharp & Dohme LLC, priority 2020, dated 2026):

Biological target: T1, human OX2R (Homo sapiens, UniProt O43614)
T1 construct: expressed in transfected cells; host or cells: CHO (Chinese hamster ovary) cells grown under G418 selection
T1 sequence (O43614 1-444): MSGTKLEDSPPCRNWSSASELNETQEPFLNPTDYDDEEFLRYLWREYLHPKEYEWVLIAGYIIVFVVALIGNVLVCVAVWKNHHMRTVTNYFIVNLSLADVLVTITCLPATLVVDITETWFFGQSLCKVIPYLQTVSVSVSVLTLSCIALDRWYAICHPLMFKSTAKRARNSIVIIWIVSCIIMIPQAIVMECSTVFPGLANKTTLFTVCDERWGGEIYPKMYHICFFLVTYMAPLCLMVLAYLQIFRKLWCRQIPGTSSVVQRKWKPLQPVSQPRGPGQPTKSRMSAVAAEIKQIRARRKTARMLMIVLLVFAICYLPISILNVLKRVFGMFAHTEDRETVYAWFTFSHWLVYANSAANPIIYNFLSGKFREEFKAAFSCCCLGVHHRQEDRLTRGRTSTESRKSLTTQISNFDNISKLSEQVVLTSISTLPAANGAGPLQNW
Experiment: IPOne (IP-1 accumulation) assay in CHO cells expressing human OX2R
Assay type: cell-based
Settings: for EC50: CHO cells expressing human OX2R, IP-One assay, 2 h incubation, four parameter logistic fit, read-out: OX2R Potency, EC50; for % of maximum agonist effect (relative to Orexin A): percent effect vs mean max effect of a reference compound at 1 uM (100% activity vs Orexin A), human OX2R
In short: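 Agonist EC50 values come from the inflection point of four-parameter logistic curves. Read-out is IP-1 accumulation detected with lysis buffer plus D2 and AB-cryptate reagents (HTRF), in CHO cells engineered to express human OX2R.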

## CCN(C(=O)N[C@@H](CCC(F)(F)F)C(F)(F)F)C(c1cc(-c2cn3ccnc3c(OC)n2)c2occc2n1)C(F)(F)F (stereo partly drawn) [Example 2-13, 1-ethyl-3-((S)-1,1,1,5,5,5-hexafluoropentan-2-yl)-1-(2,2,2-trifluoro-1-(7-(8-methoxyimidazo[1,2-a]pyrazin-6-yl)furo[3,2-b]pyridin-5-yl)ethyl)urea]
  EC50: 2.1 nM
  % of maximum agonist effect (relative to Orexin A): 99.9%

## CCCN(C(=O)N[C@H](CC)CCC(F)(F)F)[C@H](C)c1cccc(-c2cn3ccnc3c(OC)n2)c1 [Example 2-59, 1-((R)-1-(3-(8-methoxyimidazo[1,2-a]pyrazin-6-yl)phenyl)ethyl)-1-propyl-3-((R)-6,6,6-trifluorohexan-3-yl)urea]
  EC50: 20.9 nM
  % of maximum agonist effect (relative to Orexin A): 100.2%

## CCN(C(=O)NC(C1CC1)C(F)(F)F)C(c1cc(-c2cn3ccnc3c(OC)n2)c(OC)cn1)C(F)(F)F (stereo not shown) [Example 2-6, 3-(1-cyclopropyl-2,2,2-trifluoroethyl)-1-ethyl-1-(2,2,2-trifluoro-1-(5-methoxy-4-(8-methoxyimidazo[1,2-a]pyrazin-6-yl)pyridin-2-yl)ethyl)urea]
  EC50: 12.1 nM
  % of maximum agonist effect (relative to Orexin A): 101.5%

## CCC(CCC(F)(F)F)NC(=O)N(CC)[C@H](C)c1cccc(-c2cn3ccnc3cc2C)c1 (stereo partly drawn) [Example 8-8, 1-ethyl-1-((R)-1-(3-(7-methylimidazo[1,2-a]pyridin-6-yl)phenyl)ethyl)-3-(6,6,6-trifluorohexan-3-yl)urea]
  EC50: 248 nM
  % of maximum agonist effect (relative to Orexin A): 102.1%

## CCN(C(=O)N[C@@H](CCC(F)F)C(F)F)[C@@H](c1cc(-c2cn3cc(C)nc3c(OC)n2)c(OC)cn1)C(F)(F)F [Example 4-2, 1-ethyl-3-((S)-1,1,5,5-tetrafluoropentan-2-yl)-1-((S)-2,2,2-trifluoro-1-(5-methoxy-4-(8-methoxy-2-methylimidazo[1,2-a]pyrazin-6-yl)pyridin-2-yl)ethyl)urea]
  EC50: 5.9 nM
  % of maximum agonist effect (relative to Orexin A): 99.9%

## CCN(C(=O)N[C@@H](CCC(C)(F)F)C(F)(F)F)[C@H](C)c1cnc(OC)c(-c2cn3ccnc3c(OC)n2)c1 [Example 10-19, 1-ethyl-1-((R)-1-(6-methoxy-5-(8-methoxyimidazo[1,2-a]pyrazin-6-yl)pyridin-3-yl)ethyl)-3-((S)-1,1,1,5,5-pentafluorohexan-2-yl)urea]
  EC50: 0.8 nM
  % of maximum agonist effect (relative to Orexin A): 100.6%

## CCN(C(=O)N[C@@H](CCC(F)(F)F)C1CC1)[C@H](C)c1cnc(OC)c(-c2cn3ccnc3c(OC)n2)c1 [Example 12-2, 3-((S)-1-cyclopropyl-4,4,4-trifluorobutyl)-1-ethyl-1-((R)-1-(6-methoxy-5-(8-methoxyimidazo[1,2-a]pyrazin-6-yl)pyridin-3-yl)ethyl)urea]
  EC50: 1.2 nM
  % of maximum agonist effect (relative to Orexin A): 100.6%

## CCN(C(=O)NC(CC(C)C(F)(F)F)C(F)(F)F)[C@H](C)c1cccc(-c2cn3ccnc3c(OC)n2)c1 (stereo partly drawn) [Example 2-2, 1-ethyl-3-(1,1,1,5,5,5-hexafluoro-4-methylpentan-2-yl)-1-((R)-1-(3-(8-methoxyimidazo[1,2-a]pyrazin-6-yl)phenyl)ethyl)urea]
  EC50: 3.7 nM
  % of maximum agonist effect (relative to Orexin A): 99.1%

## CC[C@H](CCC(F)(F)F)NC(=O)N(CC)[C@H](C)c1cccc(-c2cn3ccnc3cc2Cl)c1 [Example 8-15, 1-((R)-1-(3-(7-chloroimidazo[1,2-a]pyridin-6-yl)phenyl)ethyl)-1-ethyl-3-((R)-6,6,6-trifluorohexan-3-yl)urea]
  EC50: 188 nM
  % of maximum agonist effect (relative to Orexin A): 94.1%

## CCN(C(=O)NC1CCC(C(F)(F)F)N(C)C1)[C@@H](c1cccc(-c2cn3ccnc3c(OC)n2)c1)C(F)(F)F (stereo partly drawn) [Example 2-67, 1-ethyl-3-(1-methyl-6-(trifluoromethyl)piperidin-3-yl)-1-((S)-2,2,2-trifluoro-1-(3-(8-methoxyimidazo[1,2-a]pyrazin-6-yl)phenyl)ethyl)urea]
  EC50: 7.7 nM
  % of maximum agonist effect (relative to Orexin A): 98.7%

## CCN(C(=O)NC(CCC1CC1)C(F)(F)F)[C@H](C)c1cccc(-c2cn3ccnc3c(OC)n2)c1 (stereo partly drawn) [Example 3-6, 3-(4-cyclopropyl-1,1,1-trifluorobutan-2-yl)-1-ethyl-1-((R)-1-(3-(8-methoxyimidazo[1,2-a]pyrazin-6-yl)phenyl)ethyl)urea]
  EC50: 2.6 nM
  % of maximum agonist effect (relative to Orexin A): 99.7%

## CCN(C(=O)NC(C)C1CCCC(F)(F)C1)[C@H](C)c1cccc(-c2cn3ccnc3c(OC)n2)c1 (stereo partly drawn) [Example 1-9, 3-(1-(3,3-difluorocyclohexyl)ethyl)-1-ethyl-1-((R)-1-(3-(8-methoxyimidazo[1,2-a]pyrazin-6-yl)phenyl)ethyl)urea]
  EC50: 0.6 nM
  % of maximum agonist effect (relative to Orexin A): 99.8%

## CC[C@H](CCC(F)(F)F)NC(=O)N(C(C)C)[C@H](C)c1cccc(-c2cn3ccnc3c(OC)n2)c1 [Example 2-60, 1-isopropyl-1-((R)-1-(3-(8-methoxyimidazo[1,2-a]pyrazin-6-yl)phenyl)ethyl)-3-((R)-6,6,6-trifluorohexan-3-yl)urea]
  EC50: 64.4 nM
  % of maximum agonist effect (relative to Orexin A): 97.4%

## CCN(C(=O)NC(C)c1nc(C)no1)[C@@H](c1cc(-c2cn3ccnc3c(OC)n2)c(OC)cn1)C(F)(F)F (stereo partly drawn) [Example 2-26, 1-ethyl-3-(1-(3-methyl-1,2,4-oxadiazol-5-yl)ethyl)-1-((S)-2,2,2-trifluoro-1-(5-methoxy-4-(8-methoxyimidazo[1,2-a]pyrazin-6-yl)pyridin-2-yl)ethyl)urea]
  EC50: 8.6 nM
  % of maximum agonist effect (relative to Orexin A): 100.5%

## CCN(C(=O)NC(CC#N)C(F)(F)F)[C@H](C)c1cccc(-c2cn3ccnc3c(OC)n2)c1 (stereo partly drawn) [Example 1-14, 3-(3-cyano-1,1,1-trifluoropropan-2-yl)-1-ethyl-1-((R)-1-(3-(8-methoxyimidazo[1,2-a]pyrazin-6-yl)phenyl)ethyl)urea]
  EC50: 18.5 nM
  % of maximum agonist effect (relative to Orexin A): 101.3%

## CCN(C(=O)N[C@@H](CCC#N)C(F)(F)F)[C@@H](c1cc(-c2cn3ccnc3c(OC)n2)c(OC)cn1)C(F)(F)F [Example 2-35, 3-((S)-4-cyano-1,1,1-trifluorobutan-2-yl)-1-ethyl-1-((S)-2,2,2-trifluoro-1-(5-methoxy-4-(8-methoxyimidazo[1,2-a]pyrazin-6-yl)pyridin-2-yl)ethyl)urea]
  EC50: 0.9 nM
  % of maximum agonist effect (relative to Orexin A): 102.3%

## CCN(C(=O)N[C@@H](CC(OC)C(F)(F)F)C(F)(F)F)[C@@H](c1cc(-c2cn3cc(C)nc3c(OC)n2)c(OC)cn1)C(F)(F)F (stereo partly drawn) [Example 2-44, 1-ethyl-3-((2S)-1,1,1,5,5,5-hexafluoro-4-methoxypentan-2-yl)-1-((S)-2,2,2-trifluoro-1-(5-methoxy-4-(8-methoxy-2-methylimidazo[1,2-a]pyrazin-6-yl)pyridin-2-yl)ethyl)urea]
  EC50: 4.8 nM
  % of maximum agonist effect (relative to Orexin A): 100.6%

## CCN(C(=O)N[C@@H](CCC(F)(F)F)C(F)(F)F)[C@H](C)c1cc(-c2cc3ccnn3c(OC)n2)c(OC)cn1 [Example 2-51, 1-ethyl-3-((S)-1,1,1,5,5,5-hexafluoropentan-2-yl)-1-((R)-1-(5-methoxy-4-(7-methoxypyrazolo[1,5-c]pyrimidin-5-yl)pyridin-2-yl)ethyl)urea]
  EC50: 1 nM
  % of maximum agonist effect (relative to Orexin A): 98.7%

## CCN(C(=O)NCC(F)(F)F)[C@H](C)c1cccc(-c2cn3ccnc3c(OC)n2)c1 [Example 1-5, (R)-1-ethyl-1-(1-(3-(8-methoxyimidazo[1,2-a]pyrazin-6-yl)phenyl)ethyl)-3-(2,2,2-trifluoroethyl)urea]
  EC50: 73.4 nM
  % of maximum agonist effect (relative to Orexin A): 94.9%

## CCN(C(=O)N[C@@H](CCC(F)F)C1CC1)[C@@H](c1cc(-c2cn3cc(C)nc3c(OC)n2)c(OC)cn1)C(F)(F)F [Example 6-7, 3-((S)-1-cyclopropyl-4,4-difluorobutyl)-1-ethyl-1-((S)-2,2,2-trifluoro-1-(5-methoxy-4-(8-methoxy-2-methylimidazo[1,2-a]pyrazin-6-yl)pyridin-2-yl)ethyl)urea]
  EC50: 8.5 nM
  % of maximum agonist effect (relative to Orexin A): 100.9%

## CCN(C(=O)N[C@@H](CCC(F)(F)F)C(F)(F)F)[C@@H](c1cc(-c2cn3ccnc3c(OC)n2)c(C)cn1)C(F)(F)F [Example 10-21, 1-ethyl-3-((S)-1,1,1,5,5,5-hexafluoropentan-2-yl)-1-((S)-2,2,2-trifluoro-1-(4-(8-methoxyimidazo[1,2-a]pyrazin-6-yl)-5-methylpyridin-2-yl)ethyl)urea]
  EC50: 1.6 nM
  % of maximum agonist effect (relative to Orexin A): 100.9%

## CCN(C(=O)NC(Cn1ccnn1)C(F)(F)F)[C@H](C)c1cccc(-c2cn3ccnc3c(OC)n2)c1 (stereo partly drawn) [Example 1-17, 1-ethyl-1-((R)-1-(3-(8-methoxyimidazo[1,2-a]pyrazin-6-yl)phenyl)ethyl)-3-(1,1,1-trifluoro-3-(1H-1,2,3-triazol-1-yl)propan-2-yl)urea]
  EC50: 10.5 nM
  % of maximum agonist effect (relative to Orexin A): 98.7%

## CC[C@H](CCC(F)(F)F)NC(=O)N(CC)[C@H](C)c1ccc(Cl)c(-c2cc(OC)c3nccn3c2)c1 [Example 14-2, 1-((R)-1-(4-chloro-3-(8-methoxyimidazo[1,2-a]pyridin-6-yl)phenyl)ethyl)-1-ethyl-3-((R)-6,6,6-trifluorohexan-3-yl)urea]
  EC50: 2.6 nM
  % of maximum agonist effect (relative to Orexin A): 96.0%
